Assay results as given in patent US20110159515A1, “COMPOSITIONS AND METHODS FOR THE RAPID GROWTH AND DETECTION OF MICROORGANISMS” (SOLUS SCIENTIFIC SOLUTIONS LIMITED, priority 2008, published 2011).

Tested on: S. aberdeen
Assay: Direct binding Salmonella assay (chemiluminescence immunosorbent)
Details: for signal, release and detection of core oligosaccharide: 0.1% SDS

In the case of `CCCCCCCCCCCCOS(=O)(=O)[O-].[Na+]` [SDS, sodium dodecyl sulphate], the “signal, direct binding Salmonella assay” value (0% SDS, conjugate 1:100, 2.5 × 10^4 S. aberdeen, black and white plates) is reported as 1,617 ± 250, the “signal, direct binding Salmonella assay” value (0% SDS, conjugate 1:100, 5 × 10^3 S. aberdeen, black and white plates) is reported as 575 ± 120 and the “signal, direct binding Salmonella assay” value (0% SDS, conjugate 1:100, 5 × 10^4 S. aberdeen, black and white plates) is reported as 2,027 ± 206. The “signal, direct binding Salmonella assay” value (0% SDS, conjugate 1:100, 10^4 S. aberdeen, black and white plates) was 1,102 ± 357, the “signal, direct binding Salmonella assay” value (0% SDS, conjugate 1:100, 10^5 S. aberdeen, black and white plates) was 3,131 ± 121 and the “signal, direct binding Salmonella assay” value (0% SDS, conjugate 1:100, 10^6 S. aberdeen, black and white plates) was 24,566 ± 4,287. The “signal, direct binding Salmonella assay” value (0% SDS, conjugate 1:100, Peptone, black and white plates) was 643 ± 54, the “signal, direct binding Salmonella assay” value (0.1% (w/v) SDS, conjugate 1:100, 2.5 × 10^4 S. aberdeen, white plate, Lucy I) was 28,622 ± 2,162 and the “signal, direct binding Salmonella assay” value (0.1% (w/v) SDS, conjugate 1:100, 5 × 10^3 S. aberdeen, white plate, Lucy I) was 8,536 ± 1,520. The “signal, direct binding Salmonella assay” value (0.1% (w/v) SDS, conjugate 1:100, 5 × 10^4 S. aberdeen, white plate, Lucy I) was 51,909 ± 3,036, the “signal, direct binding Salmonella assay” value (0.1% (w/v) SDS, conjugate 1:100, 10^4 S. aberdeen, white plate, Lucy I) was 11,324 ± 2,770 and the “signal, direct binding Salmonella assay” value (0.1% (w/v) SDS, conjugate 1:100, 10^5 S. aberdeen, white plate, Lucy I) was 143,796 ± 4,297. For the same compound, the “signal, direct binding Salmonella assay” value (0.1% (w/v) SDS, conjugate 1:100, 10^6 S. aberdeen, white plate, Lucy I) was 356,444 ± 102,877, the “signal, direct binding Salmonella assay” value (0.1% (w/v) SDS, conjugate 1:100, Peptone, white plate, Lucy I) was 4,288 ± 1.653 and the “signal, direct binding Salmonella assay” value (0.1% SDS (first block), conjugate 1:100, 2.5 × 10^4 S. aberdeen, black and white plates) was 1,277 ± 211. For the same compound, the “signal, direct binding Salmonella assay” value (0.1% SDS (first block), conjugate 1:100, 5 × 10^3 S. aberdeen, black and white plates) was 591 ± 1, the “signal, direct binding Salmonella assay” value (0.1% SDS (first block), conjugate 1:100, 5 × 10^4 S. aberdeen, black and white plates) was 1,297 ± 4 and the “signal, direct binding Salmonella assay” value (0.1% SDS (first block), conjugate 1:100, 10^4 S. aberdeen, black and white plates) was 1,662 ± 531. The “signal, direct binding Salmonella assay” value (0.1% SDS (first block), conjugate 1:100, 10^5 S. aberdeen, black and white plates) was 2,386 ± 263, the “signal, direct binding Salmonella assay” value (0.1% SDS (first block), conjugate 1:100, 10^6 S. aberdeen, black and white plates) was 16,738 ± 1051 and the “signal, direct binding Salmonella assay” value (0.1% SDS (first block), conjugate 1:100, Peptone, black and white plates) was 643 ± 54. For the same compound, the “signal, direct binding Salmonella assay” value (0.1% SDS (second block), conjugate 1:100, 2.5 × 10^4 S. aberdeen, black and white plates) was 1,442 ± 28^, the “signal, direct binding Salmonella assay” value (0.1% SDS (second block), conjugate 1:100, 5 × 10^3 S. aberdeen, black and white plates) was 678 ± 40 and the “signal, direct binding Salmonella assay” value (0.1% SDS (second block), conjugate 1:100, 5 × 10^4 S. aberdeen, black and white plates) was 2321 ± 437. For the same compound, the “signal, direct binding Salmonella assay” value (0.1% SDS (second block), conjugate 1:100, 10^4 S. aberdeen, black and white plates) was 930 ± 21, the “signal, direct binding Salmonella assay” value (0.1% SDS (second block), conjugate 1:100, 10^5 S. aberdeen, black and white plates) was 4,654 ± 636 and the “signal, direct binding Salmonella assay” value (0.1% SDS (second block), conjugate 1:100, 10^6 S. aberdeen, black and white plates) was 28,169 ± 1516. The “signal, direct binding Salmonella assay” value (0.1% SDS (second block), conjugate 1:100, Peptone, black and white plates) was 503 ± 76, the “signal, release and detection of core oligosaccharide” value (from here on “signal, release and detection”) (10^1 bacteria (species not given)) was 10248 relative light units and the “signal, release and detection” value (10^2 bacteria (species not given)) was 9525 relative light units. The “signal, release and detection” value (10^3 bacteria (species not given)) was 12375 relative light units, the “signal, release and detection” value (10^4 bacteria (species not given)) was 65960 relative light units and the “signal, release and detection” value (10^5 bacteria (species not given)) was 717259 relative light units. The “signal, release and detection” value (10^6 bacteria (species not given)) was 895811 relative light units, the “signal, direct binding Salmonella assay” value (0.2% (w/v) SDS, conjugate 1:100, 2.5 × 10^4 S. aberdeen, white plate, Lucy I) was 27,339 ± 2,635 and the “signal, direct binding Salmonella assay” value (0.2% (w/v) SDS, conjugate 1:100, 5 × 10^3 S. aberdeen, white plate, Lucy I) was 10,334 ± 2,264. The “signal, direct binding Salmonella assay” value (0.2% (w/v) SDS, conjugate 1:100, 5 × 10^4 S. aberdeen, white plate, Lucy I) was 75,900 ± 5,798, the “signal, direct binding Salmonella assay” value (0.2% (w/v) SDS, conjugate 1:100, 10^4 S. aberdeen, white plate, Lucy I) was 11,098 ± 828^ and the “signal, direct binding Salmonella assay” value (0.2% (w/v) SDS, conjugate 1:100, 10^5 S. aberdeen, white plate, Lucy I) was 112,096 ± 3,841. For the same compound, the “signal, direct binding Salmonella assay” value (0.2% (w/v) SDS, conjugate 1:100, 10^6 S. aberdeen, white plate, Lucy I) was 365,496 ± 12,729, the “signal, direct binding Salmonella assay” value (0.2% (w/v) SDS, conjugate 1:100, Peptone, white plate, Lucy I) was 3,904 ± 59^ and the “signal, direct binding Salmonella assay” value (0.3% SDS, conjugate 1:100, 2.5 × 10^4 S. aberdeen, white plate, Lucy I) was 38,450 ± 1,411. The “signal, direct binding Salmonella assay” value (0.3% SDS, conjugate 1:100, 5 × 10^3 S. aberdeen, white plate, Lucy I) was 14,313 ± 2,881, the “signal, direct binding Salmonella assay” value (0.3% SDS, conjugate 1:100, 5 × 10^4 S. aberdeen, white plate, Lucy I) was 123,881 ± 15,994 and the “signal, direct binding Salmonella assay” value (0.3% SDS, conjugate 1:100, 10^4 S. aberdeen, white plate, Lucy I) was 14,314 ± 617^. The “signal, direct binding Salmonella assay” value (0.3% SDS, conjugate 1:100, 10^5 S. aberdeen, white plate, Lucy I) was 209,913 ± 40,150, the “signal, direct binding Salmonella assay” value (0.3% SDS, conjugate 1:100, 10^6 S. aberdeen, white plate, Lucy I) was 352,714 ± 88,260 and the “signal, direct binding Salmonella assay” value (0.3% SDS, conjugate 1:100, Peptone, white plate, Lucy I) was 3,026 ± 473. For the same compound, the “signal, direct binding Salmonella assay” value (0.4% SDS, conjugate 1:100, 2.5 × 10^4 S. aberdeen, white plate, Lucy I) was 59,399 ± 13,550, the “signal, direct binding Salmonella assay” value (0.4% SDS, conjugate 1:100, 5 × 10^3 S. aberdeen, white plate, Lucy I) was 25,175 ± 5,025 and the “signal, direct binding Salmonella assay” value (0.4% SDS, conjugate 1:100, 5 × 10^4 S. aberdeen, white plate, Lucy I) was 120,481 ± 16,389. The “signal, direct binding Salmonella assay” value (0.4% SDS, conjugate 1:100, 10^4 S. aberdeen, white plate, Lucy I) was 29,127 ± 2,516, the “signal, direct binding Salmonella assay” value (0.4% SDS, conjugate 1:100, 10^5 S. aberdeen, white plate, Lucy I) was 199,287 ± 67,462 and the “signal, direct binding Salmonella assay” value (0.4% SDS, conjugate 1:100, 10^6 S. aberdeen, white plate, Lucy I) was 398,979 ± 44,871. The “signal, direct binding Salmonella assay” value (0.4% SDS, conjugate 1:100, Peptone, white plate, Lucy I) was 3,499 ± 569, the “signal, direct binding Salmonella assay” value (0.5% (w/v) SDS (first block), conjugate 1:100, 2.5 × 10^4 S. aberdeen, black and white plates) was 1094 ± 156 and the “signal, direct binding Salmonella assay” value (0.5% (w/v) SDS (first block), conjugate 1:100, 5 × 10^3 S. aberdeen, black and white plates) was 623 ± 9. For the same compound, the “signal, direct binding Salmonella assay” value (0.5% (w/v) SDS (first block), conjugate 1:100, 5 × 10^4 S. aberdeen, black and white plates) was 1,826 ± 166, the “signal, direct binding Salmonella assay” value (0.5% (w/v) SDS (first block), conjugate 1:100, 10^4 S. aberdeen, black and white plates) was 796 ± 23 and the “signal, direct binding Salmonella assay” value (0.5% (w/v) SDS (first block), conjugate 1:100, 10^5 S. aberdeen, black and white plates) was 2,259 ± 103. For the same compound, the “signal, direct binding Salmonella assay” value (0.5% (w/v) SDS (first block), conjugate 1:100, 10^6 S. aberdeen, black and white plates) was 16,959 ± 360^, the “signal, direct binding Salmonella assay” value (0.5% (w/v) SDS (first block), conjugate 1:100, Peptone, black and white plates) was 705 ± 97 and the “signal, direct binding Salmonella assay” value (0.5% (w/v) SDS, conjugate 1:50, Peptone, black and white plate, tube luminometer) was 1198 ± 112.
